According to patent US11390661B2, “HCMV entry inhibitors” (priority 2016, dated 2022):

Tests used:
HCMV strain TB40/E = experiment: Inhibition of infection of endothelial cells (HECs), IE antigen immunofluorescence; format: cell-based, Human cytomegalovirus
Description: For testing the inhibitory effect of antivirals or fusion proteins on HCMV, the respective inhibitors were diluted in MEM and mixed with infectious supernatants, the mixtures were incubated for 2 h at 37° C. before addition to the cells. For fibroblast infection the virus-inhibitor mixture was incubated on the cells for about 24 h. If endothelial cells were included in the experiment, all cells were supplied with their respective maintenance media after 2 h, and further incubated for 22 h.
Infection efficiencies were determined by immunofluorescence staining for viral proteins. For fixation and permeabilization the cells were incubated with 80% acetone for 5 min. For HCMV infected cells the immediate early proteins pUL122/123 were detected with a mouse monoclonal (clone E13, Argene) and visualized using a Cy3 conjugated goat anti-mouse secondary antibody (Jackson Immuno Research). HSV infected cultures were stained 6 h post infection for ICP0 using a mouse monoclonal (clone 11060, Santa Cruz) and goat anti-mouse AF488 (life technologies). DAPI was used to locate nuclei. Infection rates were determined by counting the number of cell nuclei positive for the respective viral protein, as well as the total number of nuclei per image. For each condition three images were evaluated. […]

[1] = system: HCMV wild type or UL74stop particles; experiment: Staining of wild type and UL74stop (gO deficient) particles with Fc-fusion protein; format: binding, Human cytomegalovirus; conditions: 500 ng/ml, 2 h
Description: To assess the binding of Fc-Proteins to virus particles, HFFs were seeded at a density of 40,000 cells per well on IBIDI plates 1 day prior to infection. Virus preparations were pre-incubated with Fc-fusion proteins at a final concentration of 500 ng/ml for 2 h at 37° C. The virus/Fc-protein mixtures were incubated with the cells for 1.5 h on ice. Before fixation with 80% acetone, the cells were washed once with MEM. For staining of viral particles mouse hybridoma recognizing the abundant viral protein pp150 (generously provided by W. Britt, Sanchez 2000) used. As a secondary antibody goat anti-mouse Cy3 (Jackson Immuno Research was used. Visualization of bound Fc-proteins was achieved by applying anti-human Alexa488 (Invitrogen). For better orientation, cell nuclei were stained with DAPI. For quantification of PDGFR-alpha-Fc binding to HCMV particles, the grey values of 100 particles per condition were quantified using AxioVision Software (Zeiss).
To test whether pUL74 is an interaction partner of PDGFR-alpha-Fc, the inventors tested whether gO deficient particles can be stained with the soluble molecule similarly to wild type particles (shown in FIG. 8). HCMV wild type or UL74stop particles were incubated with 500 ng/ml PDGFR-alpha-Fc or PDGFRβ-Fc for 2 h before attachment to the cells ice. […]

[2] = system: HCMV strains AD169, Towne, Merlin, VR1814, VHL/E, TB40/F; experiment: Inhibition of HFF infection by other HCMV strains; format: cell-based, Human cytomegalovirus; conditions: 250 ng/ml, HFFs
Description: Infection efficiencies were determined by immunofluorescence staining for viral proteins. For fixation and permeabilization the cells were incubated with 80% acetone for 5 min. For HCMV infected cells the immediate early proteins pUL122/123 were detected with a mouse monoclonal (clone E13, Argene) and visualized using a Cy3 conjugated goat anti-mouse secondary antibody (Jackson Immuno Research). HSV infected cultures were stained 6 h post infection for ICP0 using a mouse monoclonal (clone 11060, Santa Cruz) and goat anti-mouse AF488 (life technologies). DAPI was used to locate nuclei. Infection rates were determined by counting the number of cell nuclei positive for the respective viral protein, as well as the total number of nuclei per image. For each condition three images were evaluated.
Next, it was tested whether soluble PDGFR-alpha-Fc would inhibit not only strain TB40/E but also other strains of HCMV. […] After an overnight incubation, the fraction of infected cells was determined by immunofluorescence staining of viral immediate early antigen. […]

UL74stop virus = experiment: Inhibition assay with UL74stop virus; format: cell-based, Human cytomegalovirus
Description: To further investigate this, inhibition assays were performed with the UL74stop virus (FIG. 8B). As deletion of pUL74 from the virus has a severe effect on infectivity, virions had to be 50 fold concentrated for the experiment, whereas wild type virus had to be diluted to achieve similar infection rates.
FIG. 8: pUL74 is the viral interaction partner of PDGFR-alpha-Fc. Virus preparations of strain TB40-BAC4 or TB40-BAC4UL74stop were pretreated for 2 h with PDGFR-alpha-Fc. A: HFFs were fixed after 90 min of incubation with the virus-inhibitor mixture followed by staining for the viral structural protein pUL32 (red) and for Fc (green). B: Wild type or pUL74stop virus preparations were pre-incubated for 2 h with PDGFR-alpha-Fc before infection of HFFs or HECs was allowed. Wild type or UL74stop virus preparations were diluted or concentrated respectively to obtain similar infection rates. Infection rates were determined by calculation of the number of immediate early positive nuclei over total DAPI stained nuclei per image. Out of three independent experiments one is shown.

[3] = system: TB40-BACKL7-UL32EGFP-UL100mCherry; experiment: Adsorption and penetration of dual fluorescent HCMV particles on HECs; format: cell-based, Human cytomegalovirus; conditions: 100 ng/ml
Description: To distinguish between adsorption and penetration of viral particles the inventors made use of dual fluorescent HCMV TB40-BACKL7-UL32EGFP-UL100mCherry (Sampaio 2013). HFFs and HECs were seeded at a density of 40,000 cells per well on gelatin-coated MIDI plates. Overnight produced cell-free infectious supernatant of the fluorescent virus was pre-incubated with PDGFR-Fcs for 2 h at 37° C. Before addition of the mixture the cells were pre-incubated with MEM for 30 min. […] After fixation with acetone, the EGFP signal of pUL32-EGFP was enhanced using mouse-anti-GFP (clone 3E6, Invitrogen) and Alexa488-anti-mouse (Life Technologies). DAPI (4′,6-diamidino-2-phenylindole) was added to mark the cell nuclei. The number of mCherry and EGFP positive particles which are enveloped was compared to the number of particles which were only green per cell. These […] particles have lost their UL100mCherry containing envelope, presumably by fusion with cellular membranes.
To further investigate, which of the initial steps of infection are blocked, the inventors performed a series of experiments that allowed discriminating between adsorption and penetration. They used the dual fluorescent virus TB40-BACKL7-UL32EGFP-UL100mCherry (Sampaio 2013) as it allows to discriminate between enveloped (EGFP-positive and mCherry positive) and non-enveloped particles (only EGFP positive). […]

PDGFR-alpha-Fc: recombinant Fc-fusion protein of the PDGFR-alpha extracellular domain, obtained from R&D (6765-PR-050)
extent of reduction of infection of HECs (HCMV strain TB40/E): incomplete
EC50 of inhibition of infection of HECs (HCMV strain TB40/E; virus pre-incubated 2 h): 0.02 to 0.05 µg/mL
staining of wild type vs UL74stop particles with anti-human Fc antibody [1]: Only virus particles containing the glycoprotein pUL74 were stained
reduction of infection, strains other than VR1814 [2]: complete
infectivity of the UL74stop virus with increasing doses (UL74stop virus): did not significantly change
effect on penetration of HECs [3]: affected only in fibroblasts
reduction of adsorption on HECs [3]: 75%
